Among the data in PubChem BioAssay (NCI) are TGI and GI50 values, retold here.

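Cultured in 96-well plates, cells were exposed to test compound for 48 hours across five concentrations. GI50 = concentration required for 50% inhibition of growth. TGI: total growth inhibition.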 A value given as a limit tells only on which side of the number the result lay.

One experiment deals with CCRF-CEM leukemia. The experiment is described as follows: NCI anticancer screen, dose series, 48 h.
On to `CCOc1ccc(NC(=O)CC2Sc3ccccc3NC2=O)cc1` (stereo unspecified), for which the TGI is > 100 µM.
With `Cn1cc(NC(=O)c2cc(NC(=O)CCCCCCCCCCC(=O)Nc3cc(C(=O)Nc4cc(C(=O)NCCC(=N)N)n(C)c4)n(C)c3)cn2C)cc1C(=O)NCCC(=N)N`, the TGI is > 100 µM.
Regarding `O=C(Nc1cccc(-n2ccc3c(NC(=O)c4ccccc4)nccc32)c1)c1cccc(C(F)(F)F)c1`, the GI50 was 0.0358 µM and the TGI worked out at 4.13 µM.
As to `C=C1C(O)C2CCC(C)(C)C(=O)C2=C(CC(C)C)C12CC2` (stereo unspecified), the GI50 was 36.8 µM and the TGI was > 100 µM.
Take `O=C1/C(=C/c2ccc(F)cc2)CCOc2ccc([N+](=O)[O-])cc21`: the GI50 is 0.761 µM and the TGI worked out at 3.47 µM.
`COC(=O)C(c1[nH]nc2ccccc12)C(C(=O)OC)c1[nH]nc2ccccc12` (stereo unspecified): the TGI is > 100 µM.
As for `C#CCNC(=O)NC(CCCNC(=O)OCc1ccccc1)C(=O)OCc1ccccc1` (stereo unspecified), the TGI is > 100 µM.
`O=c1[nH]c2ccccc2cc1C(Cl)=C(Cl)Cl`: the TGI was > 100 µM.
As to `O=[N+]([O-])[C@@H]1C2C=CC(C2)[C@H]1Cl` (stereo partly specified), the TGI was > 100 µM.
Still for that read-out and setting: the figure for `COC(=O)C(C#N)=C1c2ccccc2Oc2ccccc21` is > 100 µM; for `N#CC1(c2nc3ccccc3o2)C(=O)C(=O)N(C2C3CC4CC(C3)CC2C4)C(=O)C1=O` (stereo unspecified) it is > 100 µM.
On the same count and under the same terms, the same measure for `O=C1NC(c2ccc(O)cc2)C2CCC1C2` (stereo unspecified): > 100 µM; for `CCOC(=O)C1(CC)CCCCC(=O)N1` (stereo unspecified): > 100 µM; for `C=CC1=CSNN1`: > 100 µM.
`NC(N)=N/N=C(/c1ccccc1)c1ccc(F)cc1`: the GI50 was 0.493 µM and the TGI is > 74.6 µM.
As for `O=C(C#Cc1c[nH]c(=O)[nH]c1=O)c1ccccc1Cl`, the TGI is 59.8 µM.
The compound `CC(=O)OC1=C2CC3(C)OC(=O)CC(C)(C)C3=CC=C2C=C(C(C)C)C1=O` (stereo unspecified) displayed a TGI of 1.02 µM.
On the same count and under the same terms, the same measure for `CN(C)/C(=N/C(=S)Nc1ccccc1)SCc1ccccc1`: > 100 µM; for `C=CCSC[C@H](NC(=O)COc1ccccc1)C(=O)NC(C(=O)OCc1ccc([N+](=O)[O-])cc1)=C(C)C`: > 100 µM.

In the next experiment the test system is UO-31 renal. As to the kind of experiment: NCI anticancer screen, dose series, 48 h.
Consider `CCOc1ccc(NC(=O)CC2Sc3ccccc3NC2=O)cc1` (stereo unspecified), for which the TGI is > 100 µM.
In the case of `Cn1cc(NC(=O)c2cc(NC(=O)CCCCCCCCCCC(=O)Nc3cc(C(=O)Nc4cc(C(=O)NCCC(=N)N)n(C)c4)n(C)c3)cn2C)cc1C(=O)NCCC(=N)N`, the TGI is > 100 µM.
As for `CC(C)(C)OC(=O)n1cc(CNC(=S)Nc2ccccc2)c2ccccc21`, the GI50 is 26.5 µM and the TGI was > 100 µM.
Consider `O=C(Nc1cccc(-n2ccc3c(NC(=O)c4ccccc4)nccc32)c1)c1cccc(C(F)(F)F)c1`, for which the GI50 is 0.312 µM and the TGI was found to be 16 µM.
For `C1COCCN1.C1COCCN1.N.N.[Cl-].[Pt+2]` the same measures were > 100 µM and > 100 µM.
Regarding `C=C1C(O)C2CCC(C)(C)C(=O)C2=C(CC(C)C)C12CC2` (stereo unspecified), the GI50 is 66.1 µM and the TGI is > 100 µM.
Take `O=C1/C(=C/c2ccc(F)cc2)CCOc2ccc([N+](=O)[O-])cc21`: the GI50 is 2.06 µM and the TGI stood at 5.03 µM.
As for `Cc1ccccc1C(C#N)C(=O)C(=O)Nc1nc([N+](=O)[O-])cs1` (stereo unspecified), the TGI was > 100 µM.
Still for that read-out and setting: the same measure for `COC(=O)C(c1[nH]nc2ccccc12)C(C(=O)OC)c1[nH]nc2ccccc12` (stereo unspecified): > 100 µM; for `C#CCNC(=O)NC(CCCNC(=O)OCc1ccccc1)C(=O)OCc1ccccc1` (stereo unspecified): > 100 µM.
With `O=c1[nH]c2ccccc2cc1C(Cl)=C(Cl)Cl`, the TGI was > 100 µM.
Take `O=[N+]([O-])[C@@H]1C2C=CC(C2)[C@H]1Cl` (stereo partly specified): the TGI was > 100 µM.
On to `COC(=O)C(C#N)=C1c2ccccc2Oc2ccccc21`, for which the TGI was > 100 µM.
`N#CC1(c2nc3ccccc3o2)C(=O)C(=O)N(C2C3CC4CC(C3)CC2C4)C(=O)C1=O` (stereo unspecified): the TGI was > 100 µM.
In the case of `O=C1NC(c2ccc(O)cc2)C2CCC1C2` (stereo unspecified), the TGI is > 100 µM.
On the same count and under the same terms, the same measure for `CCOC(=O)C1(CC)CCCCC(=O)N1` (stereo unspecified): > 100 µM.
On to `C=CC1=CSNN1`, for which the TGI was > 100 µM.
On to `NC(N)=N/N=C(/c1ccccc1)c1ccc(F)cc1`, for which the GI50 is 0.991 µM and the TGI came to 14.6 µM.
For the compound `O=C(C#Cc1c[nH]c(=O)[nH]c1=O)c1ccccc1Cl`, the TGI is 38.5 µM.
For `CC(=O)OC1=C2CC3(C)OC(=O)CC(C)(C)C3=CC=C2C=C(C(C)C)C1=O` (stereo unspecified), the TGI turned out to be 3.12 µM.
In the case of `CCCCCCCCCCCCCCCC(=O)NCC(COP(=O)([O-])OCC[N+](C)(C)C)OCC` (stereo unspecified), the TGI was found to be 32.9 µM.
For `CCC(C)C1NC(=O)c2nc(oc2-c2ccccc2)-c2csc(n2)-c2csc(n2)-c2nc(oc2C)-c2coc(n2)CNC(=O)C(C(C)CC)NC1=O` (stereo unspecified), the GI50 is 0.0515 µM and the TGI was 0.185 µM.
With `O=C1CCCN(c2ccccc2)N1`, the TGI was > 100 µM.
Take `CN(C)/C(=N/C(=S)Nc1ccccc1)SCc1ccccc1`: the TGI was found to be 95.8 µM.
Take `CCOC(=O)CC1=Nc2ccccc2SC1`: the TGI is > 100 µM.
With `C=CCSC[C@H](NC(=O)COc1ccccc1)C(=O)NC(C(=O)OCc1ccc([N+](=O)[O-])cc1)=C(C)C`, the TGI is > 100 µM.

Another experiment deals with ACHN renal. The experiment is described as follows: NCI anticancer screen, dose series, 48 h.
`CCOc1ccc(NC(=O)CC2Sc3ccccc3NC2=O)cc1` (stereo unspecified): the TGI is > 100 µM.
On the same count and under the same terms, the same measure for `Cn1cc(NC(=O)c2cc(NC(=O)CCCCCCCCCCC(=O)Nc3cc(C(=O)Nc4cc(C(=O)NCCC(=N)N)n(C)c4)n(C)c3)cn2C)cc1C(=O)NCCC(=N)N`: > 100 µM.
With `CC(C)(C)OC(=O)n1cc(CNC(=S)Nc2ccccc2)c2ccccc21`, the GI50 is 5.12 µM and the TGI was 19.6 µM.
For `O=C(Nc1cccc(-n2ccc3c(NC(=O)c4ccccc4)nccc32)c1)c1cccc(C(F)(F)F)c1` the same measures were 0.0782 µM and 12.5 µM.
Take `C=C1C(O)C2CCC(C)(C)C(=O)C2=C(CC(C)C)C12CC2` (stereo unspecified): the GI50 is 39.3 µM and the TGI is > 100 µM.
Take `O=C1/C(=C/c2ccc(F)cc2)CCOc2ccc([N+](=O)[O-])cc21`: the GI50 was 28 µM and the TGI came out at 65.4 µM.
